From patent EP0284492A1, “Peptidic fractions inducing protective antibodies against the bovine leukemia virus, process for obtaining such fractions, their coding sequences and vaccines produced by these fractions” (RHONE MERIEUX, priority 1987, dated 1988) come the findings set out here.

Ends that are not written are not given here.

The subject of one assay is pseudotypes VSV (BLV). It counts as cell-based, virus BLV.
Assay [1] relates to sérums d'animaux infectés par le virus BLV. It counts as binding, bovin, ovin.

Regarding “EPRCPYVGADHFDCP (cysteine pairing not given here) [peptide 78-92, séquence 78-92 de la gp51]”, in the assay with pseudotypes VSV (BLV), the “capacité à inhiber les pseudotypes” value is reported as “remarquable capacité à inhiber les pseudotypes” and the “induction d'anticorps neutralisants” value is “induire des anticorps neutralisants”. In addition, the “reconnaissance de l'oligopeptide par les sérums” value in assay [1] was “reconnu à la fois par le sérum bovin (sérum n° 15) et le sérum ovin (sérum n° 65)”.
